According to US9649313B2, “Use of ITK inhibitors for the treatment of cancer” (The University of North Carolina at Chapel Hill, priority 2012, dated 2017):

Experiments:
Assay in all cases: cell-free kinase assay
Format in all cases: biochemical
[1] = target: T1, Erk2 (Homo sapiens, UniProt P28482); details: single inhibitor concentration
T1 construct: purchased Carna Biosciences
Description: (§1) We investigated the potency and selectivity of BI 10N against 56 kinases using a cell-free assay (Table 8A).
(§2) The selectivity of this inhibitor was investigated by testing the potency of the inhibitor at two concentrations with 53 kinases by Carna Biosciences (MA) (Table 2).

[2] = target: T2, IKKβ (Homo sapiens, UniProt O14920); details: single inhibitor concentration
T2 construct: purchased Carna Biosciences
Description: as §1, §2

[3] = target: T3, KDR (Homo sapiens, UniProt P35968); details: single inhibitor concentration
T3 construct: purchased Carna Biosciences
Description: as §1, §2

[4] = target: T4, PDK1 (Homo sapiens, UniProt O15530); details: single inhibitor concentration
T4 construct: purchased Carna Biosciences
Description: as §1, §2

[5] = target: T5, BLK (Homo sapiens, UniProt P51451); details: ATP concentration at approximately the Km for ATP
T5 construct: purchased Carna Biosciences
Description: as §1, §2

[6] = target: T6, EPHA2 (Homo sapiens, UniProt P29317); details: single inhibitor concentration
T6 construct: purchased Carna Biosciences
Description: as §1, §2

[7] = target: T7, CSK (Homo sapiens, UniProt P41240); details: single inhibitor concentration
T7 construct: purchased Carna Biosciences
T7 sequence (P41240 whole entry): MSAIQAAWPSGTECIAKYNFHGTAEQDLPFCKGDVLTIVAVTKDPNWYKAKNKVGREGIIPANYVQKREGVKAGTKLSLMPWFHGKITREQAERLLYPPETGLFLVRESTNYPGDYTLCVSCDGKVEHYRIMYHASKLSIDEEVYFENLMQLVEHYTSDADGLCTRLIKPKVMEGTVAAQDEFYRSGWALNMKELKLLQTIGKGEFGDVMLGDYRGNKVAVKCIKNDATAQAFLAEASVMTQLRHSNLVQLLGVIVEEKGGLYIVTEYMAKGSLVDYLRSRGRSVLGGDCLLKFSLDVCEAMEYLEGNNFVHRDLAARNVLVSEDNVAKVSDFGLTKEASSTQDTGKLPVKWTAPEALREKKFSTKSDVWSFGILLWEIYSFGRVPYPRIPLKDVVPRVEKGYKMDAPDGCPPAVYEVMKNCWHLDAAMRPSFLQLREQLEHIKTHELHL
Description: as §1, §2

[8] = target: T8, AurA (Homo sapiens, UniProt O14965); details: single inhibitor concentration
T8 construct: purchased Carna Biosciences
Description: as §1, §2

[9] = target: T9, MAPKAPK2 (Homo sapiens, UniProt P49137); details: single inhibitor concentration
T9 construct: purchased Carna Biosciences
Description: as §1, §2

[10] = target: T10, EPHB4 (Homo sapiens, UniProt P54760); details: single inhibitor concentration
T10 construct: purchased Carna Biosciences
Description: as §1, §2

[11] = target: T11, JAK3 (Homo sapiens, UniProt P52333); details: single inhibitor concentration
T11 construct: purchased Carna Biosciences
T11 sequence (P52333 whole entry): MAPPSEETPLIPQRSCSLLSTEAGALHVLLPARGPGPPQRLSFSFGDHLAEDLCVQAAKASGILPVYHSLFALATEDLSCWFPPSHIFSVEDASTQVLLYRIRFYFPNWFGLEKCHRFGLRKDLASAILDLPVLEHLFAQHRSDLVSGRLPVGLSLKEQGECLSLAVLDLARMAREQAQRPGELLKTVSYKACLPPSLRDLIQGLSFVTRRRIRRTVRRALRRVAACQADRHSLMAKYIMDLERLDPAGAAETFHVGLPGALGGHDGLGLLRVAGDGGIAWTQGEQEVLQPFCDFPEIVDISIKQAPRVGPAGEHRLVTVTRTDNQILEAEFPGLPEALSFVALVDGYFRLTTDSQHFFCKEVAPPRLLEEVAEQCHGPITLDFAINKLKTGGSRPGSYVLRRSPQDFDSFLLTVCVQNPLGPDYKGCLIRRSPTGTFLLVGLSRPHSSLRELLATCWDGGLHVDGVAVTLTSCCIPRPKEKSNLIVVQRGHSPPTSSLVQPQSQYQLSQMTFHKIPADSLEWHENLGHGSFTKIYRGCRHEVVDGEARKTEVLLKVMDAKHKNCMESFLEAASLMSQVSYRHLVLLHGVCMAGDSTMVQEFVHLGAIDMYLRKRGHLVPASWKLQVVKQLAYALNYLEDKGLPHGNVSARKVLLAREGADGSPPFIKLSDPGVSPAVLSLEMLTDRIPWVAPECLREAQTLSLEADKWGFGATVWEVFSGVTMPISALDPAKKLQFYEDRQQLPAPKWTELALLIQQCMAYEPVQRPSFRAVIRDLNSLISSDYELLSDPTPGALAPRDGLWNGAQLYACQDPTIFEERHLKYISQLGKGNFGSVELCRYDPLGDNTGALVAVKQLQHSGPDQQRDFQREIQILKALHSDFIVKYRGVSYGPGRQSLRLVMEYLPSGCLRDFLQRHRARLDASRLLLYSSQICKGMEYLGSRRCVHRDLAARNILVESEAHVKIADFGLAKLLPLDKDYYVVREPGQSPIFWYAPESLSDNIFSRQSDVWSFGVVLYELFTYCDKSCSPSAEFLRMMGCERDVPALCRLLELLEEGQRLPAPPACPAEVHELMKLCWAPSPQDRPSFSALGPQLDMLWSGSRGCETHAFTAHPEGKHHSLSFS
Description: as §1, §2

[12] = target: T12, ITK (Homo sapiens, UniProt Q08881)
T12 construct: purchased Carna Biosciences
T12 sequence (Q08881 1-620): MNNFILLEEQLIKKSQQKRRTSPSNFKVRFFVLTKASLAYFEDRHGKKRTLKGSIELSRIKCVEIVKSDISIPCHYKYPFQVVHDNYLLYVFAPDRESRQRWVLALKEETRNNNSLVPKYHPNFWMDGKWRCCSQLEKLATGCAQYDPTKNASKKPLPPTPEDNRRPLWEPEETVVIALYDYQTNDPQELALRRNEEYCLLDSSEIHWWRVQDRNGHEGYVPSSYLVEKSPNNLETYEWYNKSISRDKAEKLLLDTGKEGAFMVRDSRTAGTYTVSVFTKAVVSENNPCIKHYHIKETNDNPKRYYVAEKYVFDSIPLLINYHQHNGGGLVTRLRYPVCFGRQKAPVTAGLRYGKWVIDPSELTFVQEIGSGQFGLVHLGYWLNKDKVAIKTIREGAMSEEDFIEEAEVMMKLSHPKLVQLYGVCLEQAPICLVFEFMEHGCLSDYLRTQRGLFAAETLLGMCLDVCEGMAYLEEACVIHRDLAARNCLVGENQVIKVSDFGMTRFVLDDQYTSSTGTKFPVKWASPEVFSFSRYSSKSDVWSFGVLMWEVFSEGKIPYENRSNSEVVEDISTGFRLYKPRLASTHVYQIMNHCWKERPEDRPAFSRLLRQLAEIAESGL
Description: as §1, §2

[13] = target: T13, p70S6K (Homo sapiens, UniProt P23443); details: single inhibitor concentration
T13 construct: purchased Carna Biosciences
Description: as §1, §2

[14] = target: T14, LYNa (Homo sapiens, UniProt P07948); details: ATP concentration at approximately the Km for ATP
T14 construct: purchased Carna Biosciences
Description: as §1, §2

[15] = target: T15, PBK (Homo sapiens, UniProt Q96KB5); details: single inhibitor concentration
T15 construct: purchased Carna Biosciences
Description: as §1, §2

[16] = target: T16, PKACα (Homo sapiens, UniProt P17612); details: single inhibitor concentration
T16 construct: purchased Carna Biosciences
Description: as §1, §2

[17] = target: T17, MST1 (Homo sapiens, UniProt Q13043)
T17 construct: purchased Carna Biosciences
T17 sequence (Q13043 1-487): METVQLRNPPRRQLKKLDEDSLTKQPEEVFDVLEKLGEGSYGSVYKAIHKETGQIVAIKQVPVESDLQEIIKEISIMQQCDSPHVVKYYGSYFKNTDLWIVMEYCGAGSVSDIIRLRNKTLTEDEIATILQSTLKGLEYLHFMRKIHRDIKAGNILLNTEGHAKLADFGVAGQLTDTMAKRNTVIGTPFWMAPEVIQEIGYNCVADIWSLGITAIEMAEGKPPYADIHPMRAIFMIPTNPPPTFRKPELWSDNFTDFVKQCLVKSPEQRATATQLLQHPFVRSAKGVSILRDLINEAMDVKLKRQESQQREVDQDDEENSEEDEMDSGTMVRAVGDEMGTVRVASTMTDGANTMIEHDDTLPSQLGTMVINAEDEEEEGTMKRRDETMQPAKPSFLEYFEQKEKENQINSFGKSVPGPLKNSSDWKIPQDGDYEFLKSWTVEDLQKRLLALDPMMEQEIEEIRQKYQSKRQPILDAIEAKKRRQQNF
Description: as §1, §2

[18] = target: T18, CHK1 (Homo sapiens, UniProt O14757); details: single inhibitor concentration
T18 construct: purchased Carna Biosciences
Description: as §1, §2

[19] = target: T19, LYNb (Homo sapiens, UniProt P07948); details: ATP concentration at approximately the Km for ATP
T19 construct: purchased Carna Biosciences
Description: as §1, §2

[20] = target: T20, SRC (Homo sapiens, UniProt P12931)
T20 construct: purchased Carna Biosciences
T20 sequence (P12931 whole entry): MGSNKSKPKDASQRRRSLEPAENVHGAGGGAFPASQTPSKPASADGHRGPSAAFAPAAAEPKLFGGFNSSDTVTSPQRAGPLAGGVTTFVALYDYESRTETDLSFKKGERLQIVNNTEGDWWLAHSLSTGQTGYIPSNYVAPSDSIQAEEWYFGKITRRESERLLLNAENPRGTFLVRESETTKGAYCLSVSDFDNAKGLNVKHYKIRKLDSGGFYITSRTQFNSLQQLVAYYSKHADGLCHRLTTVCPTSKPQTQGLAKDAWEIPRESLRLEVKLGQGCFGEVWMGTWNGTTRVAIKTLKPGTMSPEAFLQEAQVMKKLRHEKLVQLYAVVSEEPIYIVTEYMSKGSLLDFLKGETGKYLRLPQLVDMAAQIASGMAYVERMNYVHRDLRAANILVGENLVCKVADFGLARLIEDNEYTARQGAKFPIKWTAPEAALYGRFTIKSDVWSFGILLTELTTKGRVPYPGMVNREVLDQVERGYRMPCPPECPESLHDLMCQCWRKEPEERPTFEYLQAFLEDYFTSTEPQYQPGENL
Description: as §1, §2

[21] = target: T21, TSSK1 (Homo sapiens, UniProt Q9BXA7)
T21 construct: purchased Carna Biosciences
T21 sequence (Q9BXA7 whole entry): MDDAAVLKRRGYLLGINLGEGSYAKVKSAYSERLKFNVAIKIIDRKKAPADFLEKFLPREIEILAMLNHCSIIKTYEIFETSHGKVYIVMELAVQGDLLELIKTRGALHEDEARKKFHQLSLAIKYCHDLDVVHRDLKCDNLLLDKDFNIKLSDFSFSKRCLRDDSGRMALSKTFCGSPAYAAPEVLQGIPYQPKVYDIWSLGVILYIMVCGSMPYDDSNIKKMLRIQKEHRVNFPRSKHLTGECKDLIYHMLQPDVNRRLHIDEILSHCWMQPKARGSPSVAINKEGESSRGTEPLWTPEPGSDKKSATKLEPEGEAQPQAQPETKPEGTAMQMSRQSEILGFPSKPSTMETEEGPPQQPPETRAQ
Description: as §1, §2

[22] = target: T22, SGK (Homo sapiens, UniProt O00141); details: single inhibitor concentration
T22 construct: purchased Carna Biosciences
Description: as §1, §2

[23] = target: T23, HGK (Homo sapiens, UniProt O95819)
T23 construct: purchased Carna Biosciences
T23 sequence (O95819 whole entry): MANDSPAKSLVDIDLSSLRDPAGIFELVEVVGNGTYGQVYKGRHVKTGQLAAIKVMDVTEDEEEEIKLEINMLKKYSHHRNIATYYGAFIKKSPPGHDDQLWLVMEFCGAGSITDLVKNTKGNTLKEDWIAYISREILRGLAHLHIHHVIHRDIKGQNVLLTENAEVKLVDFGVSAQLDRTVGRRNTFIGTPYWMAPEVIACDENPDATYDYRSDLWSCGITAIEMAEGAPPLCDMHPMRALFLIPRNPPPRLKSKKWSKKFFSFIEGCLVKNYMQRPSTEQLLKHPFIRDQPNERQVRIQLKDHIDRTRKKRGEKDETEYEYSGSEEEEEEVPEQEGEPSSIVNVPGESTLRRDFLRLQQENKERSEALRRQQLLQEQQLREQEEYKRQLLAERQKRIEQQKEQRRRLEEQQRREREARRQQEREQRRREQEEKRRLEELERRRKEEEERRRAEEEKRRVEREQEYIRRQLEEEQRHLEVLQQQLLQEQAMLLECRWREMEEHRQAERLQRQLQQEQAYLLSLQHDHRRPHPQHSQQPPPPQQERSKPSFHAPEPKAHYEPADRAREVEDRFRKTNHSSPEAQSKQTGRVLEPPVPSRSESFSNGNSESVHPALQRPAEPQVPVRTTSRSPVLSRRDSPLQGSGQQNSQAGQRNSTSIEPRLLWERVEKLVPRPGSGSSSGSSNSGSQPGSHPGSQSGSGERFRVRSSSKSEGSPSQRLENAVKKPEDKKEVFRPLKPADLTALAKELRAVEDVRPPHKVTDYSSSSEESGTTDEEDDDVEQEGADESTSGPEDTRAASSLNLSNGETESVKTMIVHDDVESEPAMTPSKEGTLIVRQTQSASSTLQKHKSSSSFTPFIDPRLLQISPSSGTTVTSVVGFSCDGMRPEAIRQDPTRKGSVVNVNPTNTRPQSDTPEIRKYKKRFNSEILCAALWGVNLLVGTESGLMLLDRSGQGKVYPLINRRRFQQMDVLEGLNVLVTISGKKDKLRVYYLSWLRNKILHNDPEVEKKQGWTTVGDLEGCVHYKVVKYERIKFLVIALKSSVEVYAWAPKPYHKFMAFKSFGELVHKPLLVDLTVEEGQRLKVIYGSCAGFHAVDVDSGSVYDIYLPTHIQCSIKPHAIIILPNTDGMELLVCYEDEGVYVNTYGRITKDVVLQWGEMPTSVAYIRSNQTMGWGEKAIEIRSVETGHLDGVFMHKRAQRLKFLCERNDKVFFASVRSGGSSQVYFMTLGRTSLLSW
Description: as §1, §2

[24] = target: T24, TRKB (Homo sapiens, UniProt Q16620)
T24 construct: purchased Carna Biosciences
T24 sequence (Q16620 32-822): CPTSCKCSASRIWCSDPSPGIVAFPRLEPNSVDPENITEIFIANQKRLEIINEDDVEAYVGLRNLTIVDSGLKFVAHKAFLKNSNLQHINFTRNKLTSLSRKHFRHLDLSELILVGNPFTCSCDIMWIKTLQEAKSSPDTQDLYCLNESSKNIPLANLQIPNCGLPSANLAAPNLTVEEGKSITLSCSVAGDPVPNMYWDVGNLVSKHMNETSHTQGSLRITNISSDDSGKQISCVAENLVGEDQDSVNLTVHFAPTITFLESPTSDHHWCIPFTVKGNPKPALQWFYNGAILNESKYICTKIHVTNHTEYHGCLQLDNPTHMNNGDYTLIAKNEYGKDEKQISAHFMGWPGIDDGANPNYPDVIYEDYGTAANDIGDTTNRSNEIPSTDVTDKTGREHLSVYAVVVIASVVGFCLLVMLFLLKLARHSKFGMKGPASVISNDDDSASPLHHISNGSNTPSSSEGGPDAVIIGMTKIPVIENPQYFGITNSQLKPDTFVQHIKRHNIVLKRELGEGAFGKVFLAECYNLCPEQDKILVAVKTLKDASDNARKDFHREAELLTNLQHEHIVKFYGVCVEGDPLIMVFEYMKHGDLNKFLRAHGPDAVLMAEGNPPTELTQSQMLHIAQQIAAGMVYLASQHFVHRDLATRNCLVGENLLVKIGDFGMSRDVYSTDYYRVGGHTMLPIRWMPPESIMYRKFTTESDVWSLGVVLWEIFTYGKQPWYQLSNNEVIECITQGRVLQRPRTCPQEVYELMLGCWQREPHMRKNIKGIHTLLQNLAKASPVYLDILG
Description: as §1, §2

[25] = target: T25, ZAP70 (Homo sapiens, UniProt P43403); details: ATP concentration at approximately the Km for ATP
T25 construct: purchased Carna Biosciences
Description: as §1, §2

[26] = target: T26, AKT1 (Homo sapiens, UniProt P31749); details: single inhibitor concentration
T26 construct: purchased Carna Biosciences
Description: as §1, §2

T1 sequence (P28482 whole entry): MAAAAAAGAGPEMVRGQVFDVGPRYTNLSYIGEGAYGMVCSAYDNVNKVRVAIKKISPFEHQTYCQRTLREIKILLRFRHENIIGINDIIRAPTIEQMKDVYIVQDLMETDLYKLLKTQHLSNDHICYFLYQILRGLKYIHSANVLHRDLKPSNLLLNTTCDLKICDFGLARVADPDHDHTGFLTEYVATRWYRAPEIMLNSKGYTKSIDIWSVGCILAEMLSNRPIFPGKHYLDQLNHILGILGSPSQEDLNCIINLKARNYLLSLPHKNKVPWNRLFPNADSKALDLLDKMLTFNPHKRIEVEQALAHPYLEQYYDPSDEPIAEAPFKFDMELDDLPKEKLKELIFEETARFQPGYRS

Q: What does the source list for `CC(C)C(C)CNCc1ccc2c(c1)[nH]/c(=N\C(=O)c1ccc(C3=CN=NC3)s1)n2CC(C)(C)O` (stereo not shown) [BI 10N]?
A: inhibition at 0.2 µM [1]: -1.5%; inhibition at 0.2 µM [2]: -2.4%; inhibition at 0.2 µM [3]: 79.3%; inhibition at 0.2 µM [4]: 1.5%; IC50 [5]: 52.2 nM; inhibition at 0.2 µM [6]: 7.8%; inhibition at 0.2 µM [7]: 32.4%; inhibition at 0.2 µM [8]: 15.9%; inhibition at 0.2 µM [9]: -5.2%; inhibition at 0.2 µM [10]: 52.1%; inhibition at 0.2 µM [11]: 75%; mode of inhibition ([12]; ITK): time-dependent inhibitor; IC50 ([12]; ITK, 1 mM ATP, Km ATP 6.1 μM): 1.43 nM; IC50 ([12]; ITK, ATP at approximately the Km for ATP, more potent than can be measured): < 0.5 nM; IC50 ([12]; ITK, Table 2, by Carna Biosciences): 0.486 nM; Km ([12]; ITK, calculated from IC50 at 1 mM ATP, read-out: Calculated Apparent Km for BI 10N Binding): 0.00865 nM; inhibition at 0.2 µM ([12]; ITK, single inhibitor concentration): 107%; Ki ([12]; tight binding studies, read-out: K (affinity for ITK)): 8.6 pM; inhibition at 0.2 µM [13]: 7.6%; IC50 [14]: 36.6 nM; inhibition at 0.2 µM [15]: 1.7%; inhibition at 0.2 µM [16]: 2.5%; IC50 ([17]; Table 2, by Carna Biosciences): 26 nM; inhibition at 0.2 µM ([17]; single inhibitor concentration): 91.7%; inhibition at 0.2 µM [18]: 60.3%; IC50 [19]: 43 nM; IC50 ([20]; Table 2, by Carna Biosciences): 3.76 nM; inhibition at 0.2 µM ([20]; single inhibitor concentration): 99.9%; IC50 ([21]; Table 2, by Carna Biosciences): 28.6 nM; inhibition at 0.2 µM ([21]; single inhibitor concentration): 88.9%; inhibition at 0.2 µM [22]: 1.4%; IC50 ([23]; Table 2, by Carna Biosciences): 12.1 nM; inhibition at 0.2 µM ([23]; single inhibitor concentration): 100%; IC50 [24]: 1.28 nM; selectivity for ITK over TRKB [24]: about 10 fold; IC50 [25]: 7.09 µM; inhibition at 0.2 µM [26]: -2.2%
